Where a name gives a salt, the structure may show the parent alone. Read-outs that look alike come from different tables or passages of the source.
Columns and labels:
α2A receptor = target: T1, α2A receptor (Homo sapiens, UniProt P08913); assay: Competition binding, [3H]rauwolscine, human α2A receptor
T1 construct: host or cells: LM(tk-) cells, line L-α2A
T1 sequence (P08913 1-465): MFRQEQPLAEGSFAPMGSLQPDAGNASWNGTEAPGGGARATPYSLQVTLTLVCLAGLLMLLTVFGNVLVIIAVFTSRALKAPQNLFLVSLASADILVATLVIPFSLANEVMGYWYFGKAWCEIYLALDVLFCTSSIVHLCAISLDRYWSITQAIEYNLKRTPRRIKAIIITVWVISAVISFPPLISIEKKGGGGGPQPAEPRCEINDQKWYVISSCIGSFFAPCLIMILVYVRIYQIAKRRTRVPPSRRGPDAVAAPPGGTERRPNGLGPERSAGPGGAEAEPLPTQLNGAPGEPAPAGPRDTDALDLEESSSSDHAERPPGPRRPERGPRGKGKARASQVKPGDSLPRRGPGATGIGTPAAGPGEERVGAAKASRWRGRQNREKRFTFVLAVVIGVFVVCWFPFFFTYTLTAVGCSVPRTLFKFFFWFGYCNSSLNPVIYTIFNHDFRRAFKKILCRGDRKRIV
Outline: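 Lysates of LM(tk−) cells stably expressing human α2A, α2B or α2C receptors in 25 mM glycylglycine pH 7.6. Equilibrium competition against 0.5 nM [3H]rauwolscine, with 10 μM phentolamine defining nonspecific binding. Bound ligand separated by GF/B filtration.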

[1] = target: T2, α1B Human Adrenergic Receptor (Homo sapiens, UniProt P35368); assay: Radioligand binding, [3H]prazosin, cloned human α1B adrenergic receptor
T2 construct: The entire coding region of α1B (1563 bp); expressed in transfected cells
T2 sequence (P35368 1-520): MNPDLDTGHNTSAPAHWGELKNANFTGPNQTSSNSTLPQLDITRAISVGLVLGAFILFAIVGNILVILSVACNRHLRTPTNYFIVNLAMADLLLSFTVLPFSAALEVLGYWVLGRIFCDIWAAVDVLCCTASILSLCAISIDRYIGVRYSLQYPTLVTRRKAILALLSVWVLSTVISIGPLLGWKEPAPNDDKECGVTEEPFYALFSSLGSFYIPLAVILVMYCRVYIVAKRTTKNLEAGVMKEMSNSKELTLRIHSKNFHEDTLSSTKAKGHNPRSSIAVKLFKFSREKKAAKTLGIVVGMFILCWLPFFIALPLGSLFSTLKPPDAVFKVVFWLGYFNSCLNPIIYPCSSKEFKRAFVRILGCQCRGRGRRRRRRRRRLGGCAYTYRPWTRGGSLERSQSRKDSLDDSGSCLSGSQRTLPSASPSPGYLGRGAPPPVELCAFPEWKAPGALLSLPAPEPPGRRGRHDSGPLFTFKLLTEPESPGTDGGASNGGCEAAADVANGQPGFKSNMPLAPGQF
Outline: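 [3H]prazosin (0.5 nM) binding was run for 20 min at 37° C in pH 7.5 Tris/MgCl2/ascorbate buffer on membranes of LM(tk−) cells stably expressing the cloned receptor. Filtration through GF/B ended the reaction; 10 μM phentolamine gave nonspecific binding.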

[2] = target: T3, α1C Human Adrenergic Receptor (Homo sapiens, UniProt P35348); assay: Radioligand binding, [3H]prazosin, cloned human α1C adrenergic receptor
T3 construct: The entire coding region of α1C (1401 bp); expressed in transfected cells
T3 sequence (P35348 1-466): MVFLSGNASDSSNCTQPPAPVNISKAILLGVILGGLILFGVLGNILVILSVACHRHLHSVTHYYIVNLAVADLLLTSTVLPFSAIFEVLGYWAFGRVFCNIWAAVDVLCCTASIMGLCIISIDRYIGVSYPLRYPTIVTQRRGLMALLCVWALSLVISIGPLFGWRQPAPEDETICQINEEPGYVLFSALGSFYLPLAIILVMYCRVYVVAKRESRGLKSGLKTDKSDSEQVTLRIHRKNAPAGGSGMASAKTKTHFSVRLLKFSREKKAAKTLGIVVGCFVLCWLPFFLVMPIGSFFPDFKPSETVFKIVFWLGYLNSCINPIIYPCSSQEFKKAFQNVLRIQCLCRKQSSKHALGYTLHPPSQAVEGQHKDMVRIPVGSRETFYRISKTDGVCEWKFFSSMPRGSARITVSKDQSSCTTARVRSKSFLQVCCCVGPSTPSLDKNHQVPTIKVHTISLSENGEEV
Outline: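 Membranes from LM(tk−) cells stably expressing the cloned human α1C receptor were incubated with 0.5 nM [3H]prazosin at 37° C. for 20 min in 50 mM Tris-HCl, 1 mM MgCl2, 0.1% ascorbic acid, pH 7.5. Nonspecific binding was defined with 10 μM phentolamine, and bound ligand was separated by GF/B filtration.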

[3] = [3H]rauwolscine, human α2A receptor, LM(tk−) cells, read-out: pKi alpha-2 2a (converted)
[4] = pKi alpha-1 1b, cloned human α1B receptor, LM(tk−) cell membranes
[5] = pKi alpha-1 1c, cloned human α1C receptor, LM(tk−) cell membranes
[6] = cloned human receptor in LM(tk-) cell membranes, SEM and n in lines below, read-out: pKi alpha-1 1b (converted)
[7] = cloned human receptor in LM(tk-) cell membranes, SEM and n in lines below, read-out: pKi alpha-1 1c (converted)
[8] = [3H]rauwolscine, LM(tk-) cell line L-α2A, SEM and n in lines below, read-out: pKi alpha-2 2a (converted)
[9] = pKi alpha-1 1b, cloned human receptor in LM(tk-) cell membranes, SEM and n in lines below
[10] = pKi alpha-1 1c, cloned human receptor in LM(tk-) cell membranes, SEM and n in lines below

Row | Structure (SMILES) | Ki (α2A receptor) [nM] | Ki [1, 6] [nM] | Ki [2, 7] [nM] | further results
1 | CCC1=C(C(N)=O)C(c2ccc([N+](=O)[O-])cc2)C(C(=O)NCCCN2CCC(C#N)(c3ccccc3)CC2)=C(CC)N1 (racemic) [(±)-102, 5-Carboxamido-3-{N-[(4-cyano-4-phenylpiperidin-1-ly)propyl]carboxamido-2,6-diethyl-1,4-dihydro-4-(4-nitrophenyl)pyridine hydrochloride hydrate] |  |  |  | Ki (α2A receptor; [3]): 2880 nM; Ki [1, 4]: 1620 nM; Ki [2, 5]: 3.8 nM
2 | CCC1=C(C(N)=O)C(c2ccc([N+](=O)[O-])cc2)C(C(=O)NCCCN2CCC(C#N)(c3ccccc3)CC2)=C(CC)N1 (single isomer, unassigned; (+)) [(+)-102] |  |  |  | Ki (α2A receptor; [3]): 3890 nM; Ki [1, 4]: 1230 nM; Ki [2, 5]: 2.63 nM
3 | CCC1=C(C(N)=O)C(c2ccc([N+](=O)[O-])cc2)C(C(=O)NCCCN2CCC(C#N)(c3ccccc3)CC2)=C(CC)N1 (single isomer, unassigned; (-)) [(−)-102] |  |  |  | Ki (α2A receptor; [3]): 1910 nM; Ki [1, 4]: 3160 nM; Ki [2, 5]: 112 nM
4 | COC(=O)C1=C(C)NC(C)=C(C(=O)NCCCN2CCC(c3ccccc3)(c3ccccc3)CC2)C1c1ccc(C(F)(F)F)cc1 (stereo not drawn) [Example 1] | 2400 | 407 | 30.2 | 
5 | CCC1=C(C(=O)NCCCN2CCC(c3ccccc3)(c3ccccc3)CC2)C(c2ccc([N+](=O)[O-])cc2)C(C(=O)OCc2ccccc2)=C(C)N1 (stereo not drawn) [Example 4, 5-Benzyloxycarbonyl-2-ethyl-1,4-dihydro-6-methyl-4-(4-nitrophenyl)-3-(N-(3-(4,4-diphenylpiperidin-1-yl)propyl)carboxamido) pyridine, Hydrochloride Salt, Hydrate] |  |  |  | Ki (α2A receptor; [8]): 550 nM; Ki [1, 9]: 129 nM; Ki [2, 10]: 67.6 nM
6 | COC(=O)C1=C(C)NC(C)=C(C(=O)NCCCN2CCC(c3ccccc3)(c3ccccc3)CC2)C1c1ccncc1 (stereo not drawn) [Example 5, 1,4-Dihydro-5-methoxycarbonyl-2,6-dimethyl-3-(N-(3-(4,4-diphenylpiperidin-1-yl)propyl)carboxamido)-4-(4-pyridyl)pyridine] | 2240 | 832 | 11.2 | 
7 | COC(=O)C1=C(C)NC(C)=C(C(=O)NCCCN2CCC(c3ccccc3)(c3ccccc3)CC2)C1C1CCCCC1 (stereo not drawn) [Example 6] | 832 | 204 | 148 | 
8 | COC(=O)C1=C(C)NC(C)=C(C(=O)NCCCN2CCC(c3ccccc3)(c3ccccc3)CC2)C1c1ccc(-c2ccccc2)cc1 (stereo not drawn) [Example 7] | 3800 | 288 | 617 | 
9 | COC(=O)C1=C(C)NC(C)=C(C(=O)NCCCN2CCC(c3ccccc3)(c3ccccc3)CC2)C1Cc1ccccc1 (stereo not drawn) [Example 8, 4-Benzyl-1,4-dihydro-3-methoxycarbonyl-2,6-dimethyl-5-(N-(3-(4,4-diphenylpiperidin-1-yl)propyl)carboxamido)pyridine] |  |  |  | Ki (α2A receptor; [8]): 832 nM; Ki [1, 9]: 186 nM; Ki [2, 10]: 75.9 nM
10 | COC(=O)C1=C(C)NC(C)=C(C(=O)NCCCN2CCC(c3ccccc3)(c3ccccc3)CC2)C1c1cc[n+]([O-])cc1 (stereo not drawn) [Example 9, 1,4-Dihydro-3-methoxycarbonyl-2,6-Dimethyl-4-(1-oxido-4-pyridyl)-5-(N-(3-(4,4-diphenylpiperidin-1-yl)propyl)carboxamido)pyridine] |  |  |  | Ki (α2A receptor; [8]): 2190 nM; Ki [1, 9]: 339 nM; Ki [2, 10]: 24 nM
11 | COC(=O)C1=C(C)NC(C)=C(C(=O)NCCCN2CCC(c3ccccc3)(c3ccccc3)CC2)C1c1ccc(Cl)cc1 (stereo not drawn) [Example 10, 4-(4-Chlorophenyl)-1,4-dihydro-5-methoxycarbonyl-2,6-Dimethyl-5-(N-(3-(4,4-diphenylpiperidin-1-yl)propyl)carboxamido)pyridine] | 2340 | 123 | 1.78 | 
12 | COC(=O)C1=C(C)NC(C)=C(C(=O)NCCCN2CCC(c3ccccc3)(c3ccccc3)CC2)C1c1ccc2c(c1)OCO2 (stereo not drawn) [Example 11, 1,4-Dihydro-3-methoxycarbonyl-2,6-dimethyl-4-(3,4-methylenedioxyphenyl)-5-(N-(3-(4,4-diphenylpiperidin-1-yl)propyl)carboxamido)pyridine] | 1120 | 229 | 1.12 | 
13 | COC(=O)C1=C(C)NC(C)=C(C(=O)NCCCN2CCC(c3ccccc3)(c3ccccc3)CC2)C1c1ccc(C#N)cc1 (stereo not drawn) [Example 12, 4-(4-Cyanophenyl)-1,4-dihydro-3-methoxycarbonyl-2,6-dimethyl-5-(N-(3-(4,4-diphenylpiperidin-1-yl)propyl)carboxamido)pyridine] | 776 | 151 | 1.82 | 
14 | COC(=O)C1=C(C)NC(C)=C(C(=O)NCCCN2CCC(c3ccccc3)(c3ccccc3)CC2)C1c1ccc(I)cc1 (stereo not drawn) [Example 13, 1,4-Dihydro-4-(4-iodophenyl)-3-methoxycarbonyl-2,6-dimethyl-5-(N-(3-(4,4-diphenylpiperidin-1-yl)propyl)carboxamido)pyridine] | 1260 | 166 | 7.24 | 
15 | COC(=O)C1=C(C)NC(C)=C(C(=O)NCCCN2CCC(c3ccccc3)(c3ccccc3)CC2)C1c1cccnc1 (stereo not drawn) [Example 14, 1,4-Dihydro-3-methoxycarbonyl-2.6-dimethyl-5-(N-(3-(4,4-diphenylpiperidin-1-yl)propyl)carboxamido)-4-(3-pyridyl)pyridine] |  |  |  | Ki (α2A receptor; [8]): 2880 nM; Ki [1, 9]: 2630 nM; Ki [2, 10]: 40.7 nM
16 | COC(=O)C1=C(C)NC(C)=C(C(=O)NCCCN2CCC(c3ccccc3)(c3ccccc3)CC2)C1c1ccc(Br)cc1 (stereo not drawn) [Example 15, 4-(4-Bromophenyl)-1,4-dihydro-3-methoxycarbonyl-2,6-dimethyl-5-(N-(3-(4,4-diphenylpiperidin-1-yl)propyl)carboxamido)pyridine] | 2450 | 166 | 6.31 | 
17 | COC(=O)C1=C(C)NC(C)=C(C(=O)NCCCN2CCC(c3ccccc3)(c3ccccc3)CC2)C1c1ccc(Cl)c([N+](=O)[O-])c1 (stereo not drawn) [Example 16, 4-(4-Chloro-3-nitrophenyl)-1,4-dihydro-3-methoxycarbonyl-2,6-dimethyl-5-(N-(3-(4,4-diphenylpiperidin-1-yl)propyl)carboxamido)pyridine] | 1120 | 174 | 5.89 | 
18 | COC(=O)C1=C(C)NC(C)=C(C(=O)NCCCN2CCC(c3ccccc3)(c3ccccc3)CC2)C1c1ccc(C(C)C)cc1 (stereo not drawn) [Example 18, 1,4-Dihydro-4-(4-isopropylphenyl)-3-methoxycarbonyl-2,6-dimethyl-5-(N-(3-(4,4-diphenylpiperidin-1-yl)propyl)carboxamido)pyridine] | 2140 | 174 | 69.2 | 

From patent US6608086B2, “Dihydropyridines and new uses thereof” (Synaptic Pharmaceutical Corporation, priority 1993, dated 2003)
